Assay results taken from patent US9532519B2, “Plant growth regulator and use thereof” (Japan Science and Technology Agency, priority 2006, dated 2017).

Legend:
[1] = tested on: Arabidopsis; conditions: in vivo
[2] = tested on: Sweet corn; assay: Effect of oxidized glutathione on productivity of corn under nitrogen-deficient condition; assay type: in vivo; conditions: nitrogen-deficient then 30 kgN/10a; 0.2, 0.5, 1.0 mM GSSG, 50 mL two times a week from 8 weeks after sowing
Experimental: Sweet corn was sown and cultivated for […] (7 weeks) after the sowing without supplying a nitrogen source to the sweet corn. Thereafter, the sweet corn was cultivated with 30 kgN/10a of a nitrogen source. […] See the cultivation conditions in (c) of FIG. 33.
In order to examine the amount of production of the plants in more detail, the amounts of biomass of fruits, ground parts, and portions other than the fruits were measured, and harvest index was calculated.

Substance: oxidized glutathione [GSSG]
- seed weight per one pod vs not treated [1]: significantly increased the seed weight
- amount of fruits vs not treated [2]: larger amount of fruits
- amounts of biomass of fruits, ground parts, portions other than the fruits, and harvest index vs not treated [2]: larger amounts of biomass of fruits, ground parts, and portions other than the fruits and harvest index
